Reference: patent publication US11000033B2, “Ketone or oxime compound, and herbicide” (NISSAN CHEMICAL CORPORATION, priority 2014, dated 2021)

Experiments:
Format in all cases: in vivo
[1] = tested on: Monochoria vaginalis; assay: Test Example 1: herbicidal activity, application before weed generation in submerged conditions (symbol C); details: application herbicide amount 320 g/ha
Method in brief: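 Steps: alluvial soil flooded to 4 cm; weed seeds sown together; rice seedlings (2.5 leaf) transplanted; diluted emulsion applied to water surface the same day as sowing; plants grown at 25–30 °C in greenhouse; herbicidal effect rated on a 0–5 scale at 3 weeks.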

[2] = tested on: transplanted rice plant; assay: Test Example 1: effect on crop, application before weed generation in submerged conditions (symbol a); details: application herbicide amount 320 g/ha
Method in brief: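 Rice at 2.5 leaf stage transplanted into submerged soil (4 cm depth) sown with three weed species; herbicide applied before weed emergence.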

[3] = tested on: Leptochloa chinensis; assay: Test Example 3: herbicidal effect by foliage application, Wagner pot (symbol D); details: application herbicide amount 320 g/ha
Method in brief: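 Steps: fill pot with alluvial soil; add water to 0.1–0.5 cm depth; sow weed and rice seed; grow 14 days at 25–30 °C; spray diluted emulsion over the leaves; rate effect after 3 weeks.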

[4] = tested on: Setaria viridis; assay: Test Example 4: herbicidal effect by soil treatment (symbol G); details: for G: Setaria viridis, herbicidal effect grade: 320 g/ha
Method in brief: (§1)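 Seeds were sown in sterilized diluvial soil, covered with about 1.5 cm of soil, and the soil surface was sprayed with a water-diluted emulsion of the compound at a predetermined rate. Plants grew in a greenhouse at 25° C. to 30° C.; effects were scored visually 3 weeks after application.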

[5] = tested on: Avena fatua; assay: Test Example 4: herbicidal effect by soil treatment (symbol I); details: for I: Avena fatua, herbicidal effect grade: 320 g/ha
Method in brief: as §1

[6] = tested on: Alopecurus myosuroides; assay: Test Example 4: herbicidal effect by soil treatment (symbol J); details: for J: Alopecurus myosuroides, herbicidal effect grade: 320 g/ha
Method in brief: as §1

[7] = tested on: Apera spica-venti; assay: Test Example 4: herbicidal effect by soil treatment (symbol L); details: for L: Apera spica-venti, herbicidal effect grade: 320 g/ha
Method in brief: as §1

[8] = tested on: Chenopodium album; assay: Test Example 4: herbicidal effect by soil treatment (symbol O); details: for O: Chenopodium album, herbicidal effect grade: 320 g/ha
Method in brief: as §1

[9] = tested on: Stellaria media; assay: Test Example 4: herbicidal effect by soil treatment (symbol P); details: for P: Stellaria media, herbicidal effect grade: 320 g/ha
Method in brief: as §1

[10] = tested on: Veronica persica; assay: Test Example 4: herbicidal effect by soil treatment (symbol R); details: for R: Veronica persica, herbicidal effect grade: 320 g/ha
Method in brief: as §1

[11] = tested on: Echinochloa crus-galli var. crus-galli; assay: Test Example 5: herbicidal effect by foliage application, plastic box (symbol H); details: 320 g/ha, 3 weeks after application
Method in brief: (§2)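 Greenhouse foliar test: seedlings at 14 days, grown 25° C. to 30° C. in sterilized diluvial soil; compound applied as an aqueous dilution of an emulsion; response read 3 weeks after spraying.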

[12] = tested on: Lolium multiflorum Lam.; assay: Test Example 5: herbicidal effect by foliage application, plastic box (symbol K); details: 320 g/ha, 3 weeks after application
Method in brief: as §2

[13] = tested on: Abutilon theophrasti; assay: Test Example 5: herbicidal effect by foliage application, plastic box (symbol M); details: 320 g/ha, 3 weeks after application
Method in brief: as §2

[14] = tested on: Amaranthus retroflexus; assay: Test Example 5: herbicidal effect by foliage application, plastic box (symbol N); details: 320 g/ha, 3 weeks after application
Method in brief: as §2

[15] = tested on: Chenopodium album; assay: Test Example 5: herbicidal effect by foliage application, plastic box (symbol O); details: 320 g/ha, 3 weeks after application
Method in brief: as §2

[16] = tested on: Stellaria media; assay: Test Example 5: herbicidal effect by foliage application, plastic box (symbol P); details: 320 g/ha, 3 weeks after application
Method in brief: as §2

[17] = tested on: corn; assay: Test Example 5: effect on crop by foliage application, plastic box (symbol c); details: 320 g/ha, 3 weeks after application
Method in brief: (§3)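 In a plastic box 7 cm deep filled with sterilized diluvial soil, seeds of crops and weeds such as Digitaria ciliaris, Avena fatua and Amaranthus retroflexus are sown in spots and covered with about 1.5 cm of soil before greenhouse growth at 25–30° C.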

[18] = tested on: rapeseed; assay: Test Example 5: effect on crop by foliage application, plastic box (symbol g); details: 320 g/ha, 3 weeks after application
Method in brief: as §3

[19] = application herbicide amount 320 g/ha

Compound	Herbicidal effect grade, C: Monochoria vaginalis [1]	Effect grade on crop, a: transplanted rice plant [2]	herbicidal effect on D (Leptochloa chinensis), grade 0-5 [3]	G: Setaria viridis, herbicidal effect grade [4]	I: Avena fatua, herbicidal effect grade [5]	J: Alopecurus myosuroides, herbicidal effect grade [6]	L: Apera spica-venti, herbicidal effect grade [7]	O: Chenopodium album, herbicidal effect grade [8]	P: Stellaria media, herbicidal effect grade [9]	R: Veronica persica, herbicidal effect grade [10]	H: Echinochloa crus-galli var. crus-galli, herbicidal effect (criteria 0-5) [11]	K: Lolium multiflorum Lam., herbicidal effect (criteria 0-5) [12]	M: Abutilon theophrasti, herbicidal effect (criteria 0-5) [13]	N: Amaranthus retroflexus, herbicidal effect (criteria 0-5) [14]	O: Chenopodium album, herbicidal effect (criteria 0-5) [15]	P: Stellaria media, herbicidal effect (criteria 0-5) [16]	c: corn, effect on crop (criteria 0-5) [17]	g: rapeseed, effect on crop (criteria 0-5) [18]	other results
CON=C(C)CC1CC(OC(=O)COc2ccc3ccccc3c2)=C(c2c(C)cc(C)cc2C)C1=O (stereo not drawn) [1-083]	1 (Herbicidal ratio of 5% or higher and lower than 20%)	5 (Herbicidal ratio of 90% or more (almost completely withered))	5 (Herbicidal ratio of 90% or more (almost completely withered))	5 (Herbicidal ratio of 90% or more (almost completely withered))	3 (Herbicidal ratio of 40% or higher and lower than 70%)	5 (Herbicidal ratio of 90% or more (almost completely withered))	5 (Herbicidal ratio of 90% or more (almost completely withered))	0 (Herbicidal ratio of 5% or lower (almost no effect))	0 (Herbicidal ratio of 5% or lower (almost no effect))	0 (Herbicidal ratio of 5% or lower (almost no effect))	5 (Herbicidal ratio of 90% or more (almost completely withered))	5 (Herbicidal ratio of 90% or more (almost completely withered))	4 (Herbicidal ratio of 70% or higher and lower than 90%)	4 (Herbicidal ratio of 70% or higher and lower than 90%)	0 (Herbicidal ratio of 5% or lower (almost no effect))	4 (Herbicidal ratio of 70% or higher and lower than 90%)	5 (Herbicidal ratio of 90% or more (almost completely withered))	4 (Herbicidal ratio of 70% or higher and lower than 90%)	–
CON=C(C)CC1CC(OC(=O)COCc2ccccc2)=C(c2c(C)cc(C)cc2C)C1=O (stereo not drawn) [1-094]	1 (Herbicidal ratio of 5% or higher and lower than 20%)	5 (Herbicidal ratio of 90% or more (almost completely withered))	5 (Herbicidal ratio of 90% or more (almost completely withered))	5 (Herbicidal ratio of 90% or more (almost completely withered))	3 (Herbicidal ratio of 40% or higher and lower than 70%)	5 (Herbicidal ratio of 90% or more (almost completely withered))	5 (Herbicidal ratio of 90% or more (almost completely withered))	0 (Herbicidal ratio of 5% or lower (almost no effect))	0 (Herbicidal ratio of 5% or lower (almost no effect))	0 (Herbicidal ratio of 5% or lower (almost no effect))	5 (Herbicidal ratio of 90% or more (almost completely withered))	5 (Herbicidal ratio of 90% or more (almost completely withered))	4 (Herbicidal ratio of 70% or higher and lower than 90%)	2 (Herbicidal ratio of 20% or higher and lower than 40%)	0 (Herbicidal ratio of 5% or lower (almost no effect))	3 (Herbicidal ratio of 40% or higher and lower than 70%)	5 (Herbicidal ratio of 90% or more (almost completely withered))	4 (Herbicidal ratio of 70% or higher and lower than 90%)	–
CON=C(C)CC1CC(OC(=O)C(C)Oc2ccccc2)=C(c2c(C)cc(C)cc2C)C1=O (stereo not drawn) [1-060]	3 (Herbicidal ratio of 40% or higher and lower than 70%)	5 (Herbicidal ratio of 90% or more (almost completely withered))	5 (Herbicidal ratio of 90% or more (almost completely withered))	–	–	–	–	–	–	–	–	–	–	–	–	–	–	–	G (Setaria viridis) herbicidal effect grade [4, 19]: 5 (Herbicidal ratio of 90% or more (almost completely withered)); I (Avena fatua) herbicidal effect grade [5, 19]: 3 (Herbicidal ratio of 40% or higher and lower than 70%); J (Alopecurus myosuroides) herbicidal effect grade [6, 19]: 5 (Herbicidal ratio of 90% or more (almost completely withered)); L (Apera spica-venti) herbicidal effect grade [7, 19]: 5 (Herbicidal ratio of 90% or more (almost completely withered)); O (Chenopodium album) herbicidal effect grade [8, 19]: 0 (Herbicidal ratio of 5% or lower (almost no effect)); P (Stellaria media) herbicidal effect grade [9, 19]: 0 (Herbicidal ratio of 5% or lower (almost no effect)); R (Veronica persica) herbicidal effect grade [10, 19]: 0 (Herbicidal ratio of 5% or lower (almost no effect)); H: Echinochloa crus-galli var. crus-galli, herbicidal effect grade [11]: 5 (Herbicidal ratio of 90% or more (almost completely withered)); K: Lolium multiflorum Lam., herbicidal effect grade [12]: 5 (Herbicidal ratio of 90% or more (almost completely withered)); M: Abutilon theophrasti, herbicidal effect grade [13]: 3 (Herbicidal ratio of 40% or higher and lower than 70%); N: Amaranthus retroflexus, herbicidal effect grade [14]: 0 (Herbicidal ratio of 5% or lower (almost no effect)); O: Chenopodium album, herbicidal effect grade [15]: 3 (Herbicidal ratio of 40% or higher and lower than 70%); P: Stellaria media, herbicidal effect grade [16]: 3 (Herbicidal ratio of 40% or higher and lower than 70%); c: corn, effect on crop grade [17]: 4 (Herbicidal ratio of 70% or higher and lower than 90%); g: rapeseed, effect on crop grade [18]: 4 (Herbicidal ratio of 70% or higher and lower than 90%)
